Laboratory results: ChEMBL document CHEMBL1145534 (2007)
Converted amounts (≈) assume the structure as drawn.

Assays:
Assay type in all cases: functional
[1] = system: Rothia mucilaginosa; test: Antimicrobial activity against Rothia mucilaginosa at 0.12 ug/ml by broth microdilution method
[2] = system: Enterococcus durans; test: Antimicrobial activity against Enterococcus durans at 0.25 ug/ml by broth microdilution method
[3] = system: Streptococcus anginosus; test: Antimicrobial activity against viridans group Streptococcus anginosus at 2 ug/ml by broth microdilution method
[4] = system: Corynebacterium amycolatum; test: Antimicrobial activity against Corynebacterium amycolatum at 0.12 ug/ml by broth microdilution method
[5] = system: Enterococcus hirae; test: Antimicrobial activity against Enterococcus hirae by broth microdilution method
[6] = system: Enterococcus casseliflavus; test: Antimicrobial activity against Enterococcus casseliflavus at 0.5 ug/ml by broth microdilution method
[7] = system: Streptococcus oralis; test: Antimicrobial activity against viridans group Streptococcus oralis at 1 ug/ml by broth microdilution method
[8] = system: Micrococcus luteus; test: Antimicrobial activity against Micrococcus luteus at <= 0.06 ug/ml by broth microdilution method
[9] = system: Bacillus cereus; test: Antimicrobial activity against Bacillus cereus at 0.12 ug/ml by broth microdilution method
[10] = system: Corynebacterium amycolatum; test: Antimicrobial activity against Corynebacterium amycolatum by broth microdilution method
[11] = system: Bacillus cereus; test: Antimicrobial activity against Bacillus cereus at 0.25 ug/ml by broth microdilution method
[12] = system: Streptococcus gordonii; test: Antimicrobial activity against viridans group Streptococcus gordonii at 0.12 ug/ml by broth microdilution method
[13] = system: Enterococcus gallinarum; test: Antimicrobial activity against Enterococcus gallinarum at 0.25 ug/ml by broth microdilution method
[14] = system: Enterococcus avium; test: Antimicrobial activity against Enterococcus avium at 4 ug/ml by broth microdilution method
[15] = system: Streptococcus parasanguinis; test: Antimicrobial activity against viridans group Streptococcus parasanguis at 0.5 ug/ml by broth microdilution method
[16] = system: Enterococcus gallinarum; test: Antimicrobial activity against Enterococcus gallinarum at 2 ug/ml by broth microdilution method
[17] = system: Streptococcus; test: Antimicrobial activity against beta hemolytic Streptococcus group C at <= 0.06 ug/ml by broth microdilution method
[18] = system: Enterococcus hirae; test: Antimicrobial activity against Enterococcus hirae at 0.25 ug/ml by broth microdilution method
[19] = system: Corynebacterium jeikeium; test: Antimicrobial activity against Corynebacterium jeikeium at 0.12 ug/ml by broth microdilution method
[20] = system: Streptococcus mitis; test: Antimicrobial activity against viridans group Streptococcus mitis at <= 0.06 ug/ml by broth microdilution method
[21] = system: Streptococcus parasanguinis; test: Antimicrobial activity against viridans group Streptococcus parasanguis at 1 ug/ml by broth microdilution method
[22] = system: Streptococcus anginosus; test: Antimicrobial activity against viridans group Streptococcus anginosus at 0.5 ug/ml by broth microdilution method
[23] = system: Listeria monocytogenes; test: Antimicrobial activity against Listeria monocytogenes at 0.5 ug/ml by broth microdilution method
[24] = system: Bacillus sp.; test: Antimicrobial activity against Bacillus spp. at 0.5 ug/ml by broth microdilution method; details: Bacillus sp. (in: firmicutes)
[25] = system: Aerococcus; test: Antimicrobial activity against Aerococcus spp. at <= 0.06 ug/ml by broth microdilution method
[26] = system: Micrococcus luteus; test: Antimicrobial activity against Micrococcus luteus at 0.25 ug/ml by broth microdilution method
[27] = system: Streptococcus parasanguinis; test: Antimicrobial activity against viridans group Streptococcus parasanguis by broth microdilution method
[28] = system: Streptococcus gordonii; test: Antimicrobial activity against viridans group Streptococcus gordonii at <= 0.06 ug/ml by broth microdilution method
[29] = system: Enterococcus raffinosus; test: Antimicrobial activity against Enterococcus raffinosus at 1 ug/ml by broth microdilution method
[30] = system: Streptococcus mutans; test: Antimicrobial activity against viridans group Streptococcus mutans at 2 ug/ml by broth microdilution method
[31] = system: Enterococcus durans; test: Antimicrobial activity against Enterococcus durans at 1 ug/ml by broth microdilution method
[32] = system: Streptococcus intermedius; test: Antimicrobial activity against viridans group Streptococcus intermedius at 2 ug/ml by broth microdilution method
[33] = system: Corynebacterium jeikeium; test: Antimicrobial activity against Corynebacterium jeikeium at 1 ug/ml by broth microdilution method
[34] = system: Enterococcus gallinarum; test: Antimicrobial activity against Enterococcus gallinarum at 0.5 ug/ml by broth microdilution method
[35] = system: Streptococcus mutans; test: Antimicrobial activity against viridans group Streptococcus mutans by broth microdilution method
[36] = system: Corynebacterium striatum; test: Antimicrobial activity against Corynebacterium striatum at <= 0.06 ug/ml by broth microdilution method
[37] = system: Streptococcus anginosus; test: Antimicrobial activity against viridans group Streptococcus anginosus at 0.25 ug/ml by broth microdilution method
[38] = system: Streptococcus mitis; test: Antimicrobial activity against viridans group Streptococcus mitis at 2 ug/ml by broth microdilution method
[39] = system: Streptococcus; test: Antimicrobial activity against beta hemolytic Streptococcus group C at 0.5 ug/ml by broth microdilution method
[40] = system: Streptococcus gordonii; test: Antimicrobial activity against viridans group Streptococcus gordonii at 1 ug/ml by broth microdilution method
[41] = system: Bacillus sp.; test: Antimicrobial activity against Bacillus spp. at 2 ug/ml by broth microdilution method; details: Bacillus sp. (in: firmicutes)
[42] = system: Streptococcus salivarius; test: Antimicrobial activity against viridans group Streptococcus salivarius at <= 0.06 ug/ml by broth microdilution method
[43] = system: Streptococcus equinus; test: Antimicrobial activity against viridans group Streptococcus bovis at <= 0.06 ug/ml by broth microdilution method
[44] = system: Streptococcus sanguinis; test: Antimicrobial activity against viridans group Streptococcus sanguinis by broth microdilution method
[45] = system: Streptococcus; test: Antimicrobial activity against beta hemolytic Streptococci group C at <= 0.06 ug/ml by broth microdilution method
[46] = system: Bacillus sp.; test: Antimicrobial activity against Bacillus spp. at <= 0.06 ug/ml by broth microdilution method
[47] = system: Streptococcus mitis; test: Antimicrobial activity against viridans group Streptococcus mitis at 1 ug/ml by broth microdilution method
[48] = system: Streptococcus oralis; test: Antimicrobial activity against viridans group Streptococcus oralis at 2 ug/ml by broth microdilution method
[49] = system: Streptococcus mitis; test: Antimicrobial activity against viridans group Streptococcus mitis at 0.5 ug/ml by broth microdilution method
[50] = system: Streptococcus; test: Antimicrobial activity against beta hemolytic Streptococci group G at <= 0.06 ug/ml by broth microdilution method
[51] = system: Micrococcus luteus; test: Antimicrobial activity against Micrococcus luteus at 1 ug/ml by broth microdilution method
[52] = system: Streptococcus constellatus; test: Antimicrobial activity against viridans group Streptococcus constellatus at 0.5 ug/ml by broth microdilution method
[53] = system: Streptococcus salivarius; test: Antimicrobial activity against viridans group Streptococcus salivarius at 0.25 ug/ml by broth microdilution method
[54] = system: Rothia mucilaginosa; test: Antimicrobial activity against Rothia mucilaginosa at <= 0.06 ug/ml by broth microdilution method
[55] = system: Streptococcus equinus; test: Antimicrobial activity against viridans group Streptococcus bovis at 0.25 ug/ml by broth microdilution method
[56] = system: Enterococcus avium; test: Antimicrobial activity against Enterococcus avium at 2 ug/ml by broth microdilution method

CC(=O)NC[C@H]1CN(c2ccc(N3CCOCC3)c(F)c2)C(=O)O1 [LINEZOLID]
inhibition at 0.12 µg/mL [1]: 5.6% | inhibition at 0.25 µg/mL [2]: 2% | inhibition at 2 µg/mL [3]: 100% | inhibition at 0.12 µg/mL [4]: 27.3% | MIC50 [5]: 2 µg/mL (≈ 5.93 µM) | MIC90 [5]: 2 µg/mL (≈ 5.93 µM) | inhibition at 0.5 µg/mL [6]: 0% | inhibition at 1 µg/mL [7]: 96.4% | Inhibition [8]: 0% | inhibition at 0.12 µg/mL [9]: 1.7% | MIC50 [10]: 0.25 µg/mL (≈ 0.741 µM) | MIC90 [10]: 0.25 µg/mL (≈ 0.741 µM) | inhibition at 0.25 µg/mL [11]: 3.3% | inhibition at 0.12 µg/mL [12]: 0% | inhibition at 0.25 µg/mL [13]: 0% | inhibition at 4 µg/mL [14]: 100% | inhibition at 0.5 µg/mL [15]: 57.1% | inhibition at 2 µg/mL [16]: 99.2% | Inhibition [17]: 1.5% | inhibition at 0.25 µg/mL [18]: 0% | inhibition at 0.12 µg/mL [19]: 5.1% | Inhibition [20]: 0.3% | inhibition at 1 µg/mL [21]: 100% | inhibition at 0.5 µg/mL [22]: 33.7% | inhibition at 0.5 µg/mL [23]: 0.7% | inhibition at 0.5 µg/mL [24]: 31.7% | Inhibition [25]: 0% | inhibition at 0.25 µg/mL [26]: 3.4% | MIC50 [27]: 0.5 µg/mL (≈ 1.48 µM) | MIC90 [27]: 1 µg/mL (≈ 2.96 µM) | Inhibition [28]: 0% | inhibition at 1 µg/mL [29]: 46.2% | inhibition at 2 µg/mL [30]: 100% | inhibition at 1 µg/mL [31]: 32.7% | inhibition at 2 µg/mL [32]: 100% | inhibition at 1 µg/mL [33]: 100% | inhibition at 0.5 µg/mL [34]: 1.7% | MIC50 [35]: 1 µg/mL (≈ 2.96 µM) | MIC90 [35]: 2 µg/mL (≈ 5.93 µM) | Inhibition [36]: 0% | inhibition at 0.25 µg/mL [37]: 7.7% | inhibition at 2 µg/mL [38]: 100% | inhibition at 0.5 µg/mL [39]: 16.6% | inhibition at 1 µg/mL [40]: 100% | inhibition at 2 µg/mL [41]: 100% | Inhibition [42]: 0% | Inhibition [43]: 0% | MIC50 [44]: 1 µg/mL (≈ 2.96 µM) | MIC90 [44]: 1 µg/mL (≈ 2.96 µM) | Inhibition [45]: 0% | Inhibition [46]: 0.7% | inhibition at 1 µg/mL [47]: 99.1% | inhibition at 2 µg/mL [48]: 99.3% | inhibition at 0.5 µg/mL [49]: 33.4% | Inhibition [50]: 0.5% | inhibition at 1 µg/mL [51]: 100% | inhibition at 0.5 µg/mL [52]: 42.7% | inhibition at 0.25 µg/mL [53]: 3.3% | Inhibition [54]: 0% | inhibition at 0.25 µg/mL [55]: 2.7% | inhibition at 2 µg/mL [56]: 99.1%
